Values quoted from earlier work, collected in patent US20240398845A1, “USE OF SGLT-2 INHIBITORS FOR THE PREVENTION AND/OR TREATMENT OF CARDIAC DISEASES IN NON-HUMAN MAMMALS EXCLUDING FELINES, IN PARTICULAR CANINES” (BOEHRINGER INGELHEIM VETMEDICA GMBH, priority 2021, published 2024).

Columns and labels:
[1] = system: canine atrial fibrillation model; conditions: cited from earlier work
[2] = system: Stage B2 dogs (MMVD); conditions: cited from earlier work
[3] = system: mitral regurgitation-induced myocardial dysfunction; conditions: cited from earlier work
[4] = system: adults with heart failure and reduced ejection fraction; conditions: with and without diabetes; cited from earlier work
[5] = system: non-diabetic heart failure; conditions: cited from earlier work

Cc1ccc([C@@H]2O[C@H](CO)[C@@H](O)[C@H](O)[C@H]2O)cc1Cc1ccc(-c2ccc(F)cc2)s1 [canagliflozin, Canagliflozin]
atrial remodeling [1]: suppresses atrial remodeling

COc1ccc(-c2nc3ccc(C4=NNC(=O)CC4C)cc3[nH]2)cc1 (centres unmarked) [pimobendan]
preclinical period [2]: prolongation of the preclinical period

CCOc1ccc(Cc2cc([C@@H]3O[C@H](CO)[C@@H](O)[C@H](O)[C@H]3O)ccc2Cl)cc1 [dapagliflozin, Dapagliflozin]
cardiac hemodynamics and arrhythmogenesis [3]: improves cardiac hemodynamics and mitigates arrhythmogenesis

OC[C@H]1O[C@@H](c2ccc(Cl)c(Cc3ccc(O[C@H]4CCOC4)cc3)c2)[C@H](O)[C@@H](O)[C@@H]1O [empagliflozin, Empagliflozin]
risk for the composite endpoint of cardiovascular death or hospitalization due to heart failure [4]: reduced the risk
adverse left ventricular remodeling [5]: ameliorates adverse left ventricular remodeling
